From patent publication US4727090A, “Process for preparing and therapeutical applications of the 2,4,6-triiodophenol” (Bislak, S.A., priority 1983, dated 1988)
Like-named read-outs stand apart in the source and are kept apart here.

Key:
[1] = Tolerability after three months administration in 200 cardiovascular patients; format: in vivo
Method: (§1) Hereunder we expose the clinical results obtained after the administration during three months of the 2,4,6-triiodophenol in 200 cardiovascular patients.
(§2) Sick persons were divided in 4 groups; (1) 50 patients with cerebral vascular insufficiency, (2) 50 patients with coronary insufficiency, (3) 50 patients with hepatic insufficiency and (4) 50 patients with peripheral vascular insufficiency of the lower extremities. All these persons received an intramuscular administration, a dosage of 30 mg/day of 2,4,6-triiodophenol, carrying out controls at the first, second and third month of all angiohemodynamic parameters, supposing a total of 600 controls (150 per each group after the three months).

[2] = Effects by parenteral administration compared with classical antirheumatics; format: in vivo; conditions: 1 mg/kg
velocity of blood flow = experiment: Speed of flow by echo-Doppler in cardiovascular patients (fluidifying + hemodynamizing action); format: in vivo; conditions: 30 mg/day intramuscular
Text: (§3) The technology used to show the hemodynamic changes was of the non-invasivetype, as in this way experiments can be repeated and are completely innoxious for the patient. Of all the non-invasive methods of diagnosis we selected the most reliable of actual conditions, which is the method of ultrasounds (echo and Doppler's effects). The bidimensional echocardiography in real time, combined with pulsatile Doppler and the bidimensional vascular echography combined with pulsatile Doppler hemodynamic, are actually the two most reliable non-invasive techniques for the study of the anatomic changes and macroscopic hemodynamics with regard to the cardiovascular apparatus. That's why we used for the study of the clinical effects of the 2,4,6-triiodophenol an echo-Doppler trade mark ATL (Mark V), being the transmission frequency of 3 MHz, as well as a continuous Doppler trade mark SONICAID of 4 and 8 MHz.
(§4) Patients were divided in four statistically acceptable groups (50 in each group), comparing the results obtained with this medicament before, during and after the treatment.
(§5) Methodologically there are practiced echographical cuts in real time of the heart, big vases, supra-aortic trunks, abdominal aorta, portal and caval systems and iliac and femoral arteries, obtaining fluxmetric samples Doppler in all the mentioned cardiac cavities and blood vessels to study the sense of the flow, outflow (stream) or volume of flow and the hemodynamic features of the sanguineous flow.
as §1, §2

pressure = experiment: Systemic arterial and portal pressure in cardiovascular patients (hypotensor action); format: in vivo; conditions: 30 mg/day intramuscular
Text: as §3, §4, §5, §1, §2

[3] = tested on: sensation of pain on hot plate; experiment: Hot plate test at 56° C; format: in vivo, mice
Method: (A) To control analgesic activity we use mice of about 25 g by weight, in groups of ten mice, subjected to the test of the hot plate at 56° C.
Animals receive a medicamentous injection of 0.1 ml of solubilized aspirin with sodium bicarbonate, or of solubilized triiodophenol at pH 9'5.
Controls receive physiologic serum.
The time in which the animals indicate sensation of pain is measured with a chronometer.
In the hereunder table the results testing animals, 15 min. and 30 min. after the medication. Average values are taken of each group.

waste (minute volume) = experiment: Waste / minute volume by echo-Doppler in cardiovascular patients (peripheral hyperemia); format: in vivo; conditions: 30 mg/day intramuscular
Text: as §3, §4, §5, §1, §2

vascular wall = experiment: Vascular wall distensibility by echo-Doppler in cardiovascular patients (antiatherosclerotic action); format: in vivo; conditions: 30 mg/day intramuscular
Text: as §3, §4, §5, §1, §2

[4] = tested on: acetic acid induced pullings; experiment: Writhing syndrome test (acetic acid); format: in vivo, mice; conditions: 10 mg/kg oral; for inhibition at 10 mg/kg: Mus musculus, po, read-out: % INHIB. (pullings)
Method: Irritant substance: acetic acid at 0.5% injected via intraperitoneal.
Foundation of the method consists in provoking a dolorous syndrome by pulling and torsion of the stomach and the hind legs of the animals.
These pullings or stretchings are calculated during a certain time, using it as the measure of the provoked ache.
Mice of about 22 g by weight were used, animals were left under abstinence during 24 hours before carrying out the test.
Mice were previously selected as to each individual response to the dolorous stimulus provoked by an intraperitoneal injection of 0.2 ml of an acetic acid aqueous solution at the 0.5%. Valid animals for realizing the test are those which respond within a margin of 15-35 pullings in about 5 to 15 minutes after the injection. The remaining animals are not useful.
Medication is realized via oral with the help of an esophageal cannula.
White lot: Administration of 0.1 ml of CMC 1% for each 10 g of corporal weight.
2,4,6-triiodophenol lot: Administration of 10 mg/kg of the product, suspended in CMC of 1%.
Aspirin-Lysin lot (Solusprin): Administration of 500 mg/kg aspirin, dissolved at 1%.
After medication, one has to wait 20 minutes for injecting 0.2 ml acetic acid of 0.5% via intraperitoneal, calculating the number of pullings during 5 minutes. […]
The test was carried out in 9 mice in each lot.

## Oc1c(I)cc(I)cc1I [2,4,6-triiodophenol]
[1]; iodine concentration of the product
  Thyroid function: does not alter the thyroid function
[1]; three months administration, 30 mg/day intramuscular
  Toxic effect or secondary effects of clinical importance: does not produce any toxic effect or secondary effects of clinical importance in none of the patients
[2]
  Effects compared with aspirin and indomethacin at therapeutic dosages: comparable and even higher
Velocity of blood flow; 1st month
  Speed of flow, abdominal aorta, variation (Δ %): +3%
  Speed of flow, caval iliac artery, variation (Δ %): +7%
  Speed of flow, portal carotid aorta, variation (Δ %): +11%
  Speed of flow, portal system, variation (Δ %): +16%
  Speed of flow, postcaval system, variation (Δ %): +8%
  Speed of flow, thoracic aorta, variation (Δ %): +2%
Velocity of blood flow; 2nd month
  Speed of flow, abdominal aorta, variation (Δ %): +5%
  Speed of flow, caval iliac artery, variation (Δ %): +11%
  Speed of flow, portal carotid aorta, variation (Δ %): +14%
  Speed of flow, portal system, variation (Δ %): +21%
  Speed of flow, postcaval system, variation (Δ %): +12%
  Speed of flow, thoracic aorta, variation (Δ %): +3%
Velocity of blood flow; 3rd month
  Speed of flow, abdominal aorta, variation (Δ %): +7%
  Speed of flow, average value (arteries), variation (Δ %): +11%
  Speed of flow, average value (veins), variation (Δ %): +17%
  Speed of flow, caval iliac artery, variation (Δ %): +14%
  Speed of flow, portal carotid aorta, variation (Δ %): +19%
  Speed of flow, portal system, variation (Δ %): +29%
  Speed of flow, postcaval system, variation (Δ %): +15%
  Speed of flow, thoracic aorta, variation (Δ %): +5%
Velocity of blood flow; conclusions, three months
  Increase of speed of the sanguineous flow in the arteries: 11%
  Increase of speed of the sanguineous flow in the veins: 17%
pressure; 1st month
  Portal pressure, variation (Δ %): -8%
  Systemic arterial pressure, variation (Δ %): -3%
pressure; 2nd month
  Portal pressure, variation (Δ %): -11%
  Systemic arterial pressure, variation (Δ %): -5%
pressure; 3rd month
  Portal pressure, variation (Δ %): -13%
  Systemic arterial pressure, variation (Δ %): -6%
[3]; 1 mg/kg injection, 15 minutes
  Time to sensation of pain: 6,5 sec.
[3]; 1 mg/kg injection, 30 minutes
  Time to sensation of pain: 6,7 sec.
[3]; 10 mg/kg injection, 15 minutes
  Time to sensation of pain: 11,7 sec.
[3]; 10 mg/kg injection, 30 minutes
  Time to sensation of pain: 11,8 sec.
Waste (minute volume); 1st month
  Cardiac waste, variation (Δ %): +5%
  Cerebral minute volume, variation (Δ %): +23%
  Hepatic minute volume (venous), variation (Δ %): +24%
  Lower extremity minute volume, variation (Δ %): +10%
Waste (minute volume); 2nd month
  Cardiac waste, variation (Δ %): +6%
  Cerebral minute volume, variation (Δ %): +27,6%
  Hepatic minute volume (venous), variation (Δ %): +16%
  Lower extremity minute volume, variation (Δ %): +24%
Waste (minute volume); 3rd month
  Cardiac waste, variation (Δ %): +11%
  Cerebral minute volume, variation (Δ %): +34%
  Hepatic minute volume (venous), variation (Δ %): +23%
  Lower extremity minute volume, variation (Δ %): +30%
Waste (minute volume); conclusions, three months
  Increase of volume of flow, cerebral: 34%
  Increase of volume of flow, hepatic: 23%
  Increase of volume of flow, lower member: 30%
  Increase of volume of flow, systemic circulatory minute: 11%
Vascular wall; 2nd month
  Distensibility, abdominal aorta, variation (Δ %): +29%
  Distensibility, caval iliac artery, variation (Δ %): +28%
  Distensibility, portal carotid aorta, variation (Δ %): +27%
  Distensibility, portal vein, variation (Δ %): +29,5%
  Distensibility, post caval system, variation (Δ %): +12%
  Distensibility, thoracic aorta, variation (Δ %): +11%
Vascular wall; 3rd month
  Distensibility, abdominal aorta, variation (Δ %): +31%
  Distensibility, average value (arteries), variation (Δ %): +26%
  Distensibility, average value (veins), variation (Δ %): +24%
  Distensibility, caval iliac artery, variation (Δ %): +29,5%
  Distensibility, portal carotid aorta, variation (Δ %): +30%
  Distensibility, portal vein, variation (Δ %): +32%
  Distensibility, post caval system, variation (Δ %): +15%
  Distensibility, thoracic aorta, variation (Δ %): +14%
Vascular wall; conclusions, three months
  Improvement of the parietal dynamic of all arteries: 26%
  Improvement of the parietal dynamic of veins: 24%
Vascular wall; first month
  Distensibility, abdominal aorta, variation (Δ %): +18%
  Distensibility, caval iliac artery, variation (Δ %): +12%
  Distensibility, portal carotid aorta, variation (Δ %): +17%
  Distensibility, portal vein, variation (Δ %): +15%
  Distensibility, post caval system, variation (Δ %): +7%
  Distensibility, thoracic aorta, variation (Δ %): +7%
[4]; 20'
  Total No. pullings: 14
  inhibition at 10 mg/kg: 88.4%
[4]; 30'
  Total No. pullings: 9
  inhibition at 10 mg/kg: 83.9%
[4]; 100'
  Total No. pullings: 9
  inhibition at 10 mg/kg: 86.1%
